Measured values from patent US20040014024A1, “Screening assay for antagonists of FGFR-mediated malignant cell transformation and tumor formation” (priority 1999, published 2004).

Tested on: RCJ cells
Assay: Tumor formation in nude mice injected with RCJ cells, doxycycline in drinking water
Type: in vivo
Conditions: doxycycline 25 μg/ml in drinking water, up to 60 days
Method: 6-8-Week old nude mice (BalbC/Nu) were injected subcutaneously with equivalent number of parental RCJ or L8 cells or FGFR3 expressing cell lines and were followed for tumor formation for up to 60 days after injections. Inhibition of FGFR expression in vivo was done by adding 25 μg/ml doxycycline into the drinking water of mice which had previously received the RCJ cell clones by injection. Nude mice were injected subcutaneously with equivalent numbers of parental RCJ cells (FIGS. 9 A-C, C2, squares) or wild type or mutant FGFR3 expressing RCJ cell lines (W11, circles in FIG. 9A, M15, triangles in FIG. 9A, W2, triangles in FIG. 9B, M16, circles in FIG. 9B) and tumor surface areas were evaluated for up to 60 days after injection (ordinates). […] Triangles, C2 (control) clone plus doxycycline, circles, W11 clone, filled squares, W11 clone plus doxycycline Doxycycline was used in animals because the former is a potent high affinity derivative of tetracycline. […] The inhibition of tumor formation of RCJ cells was highly correlated with the expression levels of FGFR3. In order to determine whether inhibition of tumor formation reflects the expression level of FGFR3, we have performed an assay where we tried to suppress the expression of FGFR3 in vivo by the addition of doxycycline to the drinking water of injected mice.

`C[C@H]1c2cccc(O)c2C(=O)C2=C(O)[C@]3(O)C(=O)C(C(N)=O)=C(O)[C@@H](N(C)C)[C@@H]3[C@@H](O)[C@@H]21` [doxycycline] was tested, and the “effect on tumor formation, mice injected with the parental RCJ line (C2)” value was “no significant effect”.
